The values that follow come from paper PMC8868586, “Comparison of Various Solvent Extracts and Major Bioactive Components from Unsalt-Fried and Salt-Fried Rhizomes of Anemarrhena asphodeloides for Antioxidant, Anti-α-Glucosidase, and Anti-Acetylcholinesterase Activities” (Antioxidants, 2022).

pIC50: −log10 of the molar value. Like-named read-outs stand apart in the source and are kept apart here.

A short description of experiment [1]: DPPH radical scavenging assay. Here is the method:
The DPPH radical scavenging assay was measured by the reference method.
(§1) ABTS and DPPH assays have been widely utilized to assess the antioxidant activities of natural components. Both assays are mostly connected with the proton radical scavenging or hydrogen donating capacities of the target compounds [29]. Superoxide radical scavenging activity is measured by the PMS/NADH–NBT system. Superoxide anion radicals generated from dissolved oxygen by PMS/NADH coupling reaction reduce NBT. The decrease in absorbance at 560 nm with antioxidants indicates a reduction in superoxide anion radicals in the reaction mixture. The ferric-reducing antioxidant power (FRAP) measures the antioxidant potential of each extract through the reduction of ferric iron (Fe^3+) complex to ferrous iron (Fe^2+) complex by antioxidants present in the samples [31].

Experiment [2] in a line: Ferric-reducing antioxidant power (FRAP) assay. Here is the method:
The FRAP assay was determined by the reference method with a slight modification. The working solution was mixed with acetate buffer (pH 3.6), ferric chloride solution (20 mM), and TPTZ solution (10 mM TPTZ in 40 mM HCl) in a proportion of 10:1:1, respectively, and freshly prepared before being used. A total of 900 μL of the working solution was warmed to 37 °C and then mixed with 100 μL of the diluted sample, blank or standard, in a microcentrifuge tube. The tubes were vortexed in a dry bath at 37 °C for 40 min. The absorbance was measured at 593 nm. The standard curve was linear between 0 and 100 mM Trolox. Results are expressed in mM TE/g dry weight. Additional dilution was needed if the FRAP value measured was over the linear range of the standard curve.
as §1

Experiment [3] can be described thus: ABTS radical scavenging assay. Here is the method: ABTS radical scavenging activity of each extract was determined as previously described.
as §1

Experiment [4] in a line: Superoxide radical scavenging assay (PMS/NADH-NBT system). Particulars: isolated components. How it is done: Superoxide anion radical (O2^•–) scavenging activity was measured using the previously described method.
as §1

The target of experiment [5] is T1, α-glucosidase (Saccharomyces cerevisiae, UniProt P53341).
T1 construct: purchased Sigma-Aldrich
T1 sequence (P53341 whole entry): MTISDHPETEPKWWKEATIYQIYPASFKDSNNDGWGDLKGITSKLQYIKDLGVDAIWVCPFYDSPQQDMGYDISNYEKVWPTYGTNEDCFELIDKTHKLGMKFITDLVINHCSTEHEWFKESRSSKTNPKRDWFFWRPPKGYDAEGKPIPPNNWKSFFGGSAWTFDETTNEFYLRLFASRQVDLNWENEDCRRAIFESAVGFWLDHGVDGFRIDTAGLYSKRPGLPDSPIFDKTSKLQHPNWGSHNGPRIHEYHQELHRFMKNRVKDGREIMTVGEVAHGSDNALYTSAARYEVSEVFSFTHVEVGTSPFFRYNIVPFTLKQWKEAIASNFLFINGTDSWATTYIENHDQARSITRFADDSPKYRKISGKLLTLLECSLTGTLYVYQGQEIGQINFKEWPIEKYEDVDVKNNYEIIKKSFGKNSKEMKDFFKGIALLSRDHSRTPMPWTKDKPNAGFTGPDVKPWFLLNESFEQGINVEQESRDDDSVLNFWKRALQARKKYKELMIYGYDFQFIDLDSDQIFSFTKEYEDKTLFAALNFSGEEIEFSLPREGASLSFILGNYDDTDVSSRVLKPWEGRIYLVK
Briefly: α-Glucosidase inhibitory activity assay. Format: biochemical. Particulars: for IC50: pure compounds, read-out: α-Glucosidase IC50 (converted). Here is the method:
The inhibition assay of α-glucosidase was conducted using the procedure previously reported.

The target of experiment [6] is T2, acetylcholinesterase (AChE) (Homo sapiens, UniProt P22303).
T2 construct: purchased Sigma-Aldrich
T2 sequence (P22303 32-614): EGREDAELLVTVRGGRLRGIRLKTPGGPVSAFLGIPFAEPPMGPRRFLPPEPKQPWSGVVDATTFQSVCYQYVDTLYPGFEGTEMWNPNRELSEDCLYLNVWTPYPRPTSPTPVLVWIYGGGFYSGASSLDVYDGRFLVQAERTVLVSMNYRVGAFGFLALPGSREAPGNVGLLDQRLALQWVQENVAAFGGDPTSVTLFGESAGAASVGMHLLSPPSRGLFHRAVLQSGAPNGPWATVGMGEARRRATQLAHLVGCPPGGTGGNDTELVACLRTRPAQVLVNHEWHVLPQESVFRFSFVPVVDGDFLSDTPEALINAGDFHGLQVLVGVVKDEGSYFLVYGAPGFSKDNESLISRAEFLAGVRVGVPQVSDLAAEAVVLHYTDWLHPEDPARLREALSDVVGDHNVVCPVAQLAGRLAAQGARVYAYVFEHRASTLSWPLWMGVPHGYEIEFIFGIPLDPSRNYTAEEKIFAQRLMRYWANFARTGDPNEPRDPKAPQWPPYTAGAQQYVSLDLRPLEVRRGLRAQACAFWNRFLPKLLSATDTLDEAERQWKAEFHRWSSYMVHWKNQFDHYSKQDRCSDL
Briefly: biochemical. The note with it: pure compounds; read-out: AchE Inhibitory Assay IC50 (converted). Here is the method: The inhibition assay of acetylcholinesterase was conducted using the conditions previously reported with slight modifications. Briefly, 0.1 M sodium phosphate buffer (pH 8.0, 140 μL), test compound solution (20 μL), enzyme solution (15 μL of AChE 0.2 units/mL solution), and DTNB (15 mM, 10 μL) were mixed and incubated for 10 min at room temperature. Substrate (10 μL of AchI 15 mM solution) was then added and the reaction was initiated.

Where [7] appears, read: solvent extracts of AA (non-salt-fried) series.
The mark [8] stands for this setting: solvent extracts of salt-fried AA series.
Setting [9] is: Trolox equivalents per gram, isolated components.

`Cc1cc(C(C)(C)C)c(O)c(C(C)(C)C)c1` [BHT, Butylated hydroxytoluene, reference compound]: the “DPPH IC50” value in experiment [1] (isolated components) was 27.2 ± 1.9 µg/mL; in experiment [1] (setting [7]), 35.5 ± 0.6 µg/mL; in experiment [1] (setting [8]), 39.7 ± 1.4 µg/mL. The “FRAP (TE)” value in experiment [2] (Trolox equivalents per gram of extract, AA (non-salt-fried) series) was 4297.0 ± 48.4 mM/g; in experiment [2] (Trolox equivalents per gram of extract, salt-fried AA series), 4216.1 ± 66.5 mM/g; in experiment [2] (setting [9]) it was 3963.9 ± 104.0 mM/g. In addition, the “ABTS IC50” value in experiment [3] (isolated components) was 15.4 ± 0.9 µg/mL; in experiment [3] (setting [7]), 20.6 ± 0.2 µg/mL; in experiment [3] (setting [8]), 19.6 ± 0.4 µg/mL.
Broadly, the pIC50 is the negative decadic logarithm of the IC50, by convention in mol/L. The low end stands for a large IC50, the high end for a small IC50. A word on the IC50: it is the concentration that inhibits the measured activity by half. In the case of `O=c1c2cc(O)c(O)cc2oc2c([C@@H]3O[C@H](CO)[C@@H](O)[C@H](O)[C@H]3O)c(O)cc(O)c12` [Isomangiferin, isomangiferin], the “Superoxide IC50” value in experiment [4] turned out to be 155.3 ± 13.8 µg/mL. This compound also had a pIC50 in experiment [5] of 3.36. Also, the “DPPH IC50” value in experiment [1] (isolated components) was 16.7 ± 1.1 µg/mL. Besides, the “FRAP (TE)” value in experiment [2] (setting [9]) was determined as 6359.9 ± 176.8 mM/g. Further, the IC50 in experiment [6] was 227 µM. The “ABTS IC50” value in experiment [3] (isolated components) stood at 5.6 ± 0.4 µg/mL.
Take `O=c1c2cc(O)c(O)cc2oc2cc(O)c([C@@H]3O[C@H](CO)[C@@H](O)[C@H](O)[C@H]3O)c(O)c12` [Mangiferin, mangiferin]: in experiment [4], the “Superoxide IC50” value came to 53.8 ± 2.4 µg/mL. The “potency against α-glucosidase relative to acarbose” value in experiment [5] (fold stronger than acarbose) was “about five-fold”. Further, the IC50 in experiment [5] is 146 µM; in experiment [6], 161 µM. Further, the “DPPH IC50” value in experiment [1] (isolated components) was 5.4 ± 0.3 µg/mL. Further, the “FRAP (TE)” value in experiment [2] (setting [9]) amounted to 9371.4 ± 183.9 mM/g. In experiment [3] (isolated components), the “ABTS IC50” value amounted to 3.7 ± 0.2 µg/mL.
As for `O=c1c2cc(O[C@@H]3O[C@H](CO)[C@@H](O)[C@H](O)[C@H]3O)c(O)cc2oc2cc(O)c([C@@H]3O[C@H](CO)[C@@H](O)[C@H](O)[C@H]3O)c(O)c12` [Neomangiferin, neomangiferin], the “Superoxide IC50” value in experiment [4] was over 200 µg/mL. Also, the pIC50 in experiment [5] was under 3.16. Also, the “DPPH IC50” value in experiment [1] (isolated components) was over 200 µg/mL. Also, in experiment [2] (setting [9]), the “FRAP (TE)” value stood at 83.1 ± 5.3 mM/g. In addition, the IC50 in experiment [6] is 121 µM. Further, the “ABTS IC50” value in experiment [3] (isolated components) was 81.9 ± 4.6 µg/mL.
With `C[C@H]1CC[C@@]2(OC1)O[C@H]1C[C@H]3[C@@H]4CC[C@@H]5C[C@@H](O[C@@H]6O[C@H](CO)[C@H](O)[C@H](O)[C@H]6O[C@@H]6O[C@H](CO)[C@@H](O)[C@H](O)[C@H]6O)CC[C@]5(C)[C@H]4CC[C@]3(C)[C@H]1[C@@H]2C` [Timosaponin A-III, timosaponin A-III], the “Superoxide IC50” value in experiment [4] was over 200 µg/mL. Moreover, the IC50 was 97.9 µM in experiment [5] and 179 µM in experiment [6]. In experiment [1] (isolated components), the “DPPH IC50” value is over 200 µg/mL. Also, the “FRAP (TE)” value in experiment [2] (setting [9]) was found to be 19.5 ± 3.9 mM/g. Moreover, the “ABTS IC50” value in experiment [3] (isolated components) was over 200 µg/mL.
